The values that follow come from ChEMBL document CHEMBL5537120 (Eur J Med Chem, 2024).

pEC50, pKd: −log10 of the molar value. Activity calls are given as the source filed them. No cut-off for these calls is given here. Where a SMILES comes first, the peptide text is derived from it. Bridges are numbered along the chain shown (N, C = ends).

One assay deals with Neuropilin-1 (Homo sapiens, UniProt O14786). Nature of the assay: Binding affinity to NRP1 (unknown origin) by MST analysis.
The subject of assay [1] is SARS-CoV-2. Nature of the assay: Antiviral activity against HIV-1 pseudotyped SARS-CoV-2 Omicron BA.2.75 infected in HEK293T cells expressing ACE2/NRP1 assessed as reduction in viral replication at 1.6 uM pretreated with cells for 1 hr followed by viral infection and measured after 2 days by firefly luciferase reporter gene assay. The format is functional, organism-based. The following applies: Severe acute respiratory syndrome coronavirus 2, time 49.0 hrs.

Assay [2] deals with SARS-CoV-2. Nature of the assay: microbe, parasite or virus in culture. The settings on record: Severe acute respiratory syndrome coronavirus 2, Omicron BA.2.75, HEK-293T, 49 h, read-out: INH.
Assay [3] deals with SARS-CoV-2. Nature of the assay: microbe, parasite or virus in culture. The settings on record: Severe acute respiratory syndrome coronavirus 2, Omicron BA.2.75, HEK-293T.
Description: Antiviral activity against HIV-1 pseudotyped SARS-CoV-2 Omicron BA.2.75 infected in HEK293T cells expressing ACE2/NRP1 assessed as reduction in infection rate pretreated with cells for 1 hr followed by viral infection and measured after 2 days by firefly luciferase reporter gene assay
In assay [4] the test system is SARS-CoV-2. The assay can be described thus: microbe, parasite or virus in culture. The settings on record: Severe acute respiratory syndrome coronavirus 2, Alpha, HEK-293T.
Description: Antiviral activity against HIV-1 pseudotyped SARS-CoV-2 Alpha infected in HEK293T cells expressing ACE2/NRP1 assessed as reduction in infection rate pretreated with cells for 1 hr followed by viral infection and measured after 2 days by firefly luciferase reporter gene assay
For assay [5], the system named is SARS-CoV-2. Nature of the assay: microbe, parasite or virus in culture. The following applies: Severe acute respiratory syndrome coronavirus 2, Beta, HEK-293T.
Description: Antiviral activity against HIV-1 pseudotyped SARS-CoV-2 Beta infected in HEK293T cells expressing ACE2/NRP1 assessed as reduction in infection rate pretreated with cells for 1 hr followed by viral infection and measured after 2 days by firefly luciferase reporter gene assay
Assay [6] concerns SARS-CoV-2. The assay can be described thus: microbe, parasite or virus in culture. The settings on record: Severe acute respiratory syndrome coronavirus 2, Delta, HEK-293T.
Description: Antiviral activity against HIV-1 pseudotyped SARS-CoV-2 Delta infected in HEK293T cells expressing ACE2/NRP1 assessed as reduction in infection rate pretreated with cells for 1 hr followed by viral infection and measured after 2 days by firefly luciferase reporter gene assay
The target in assay [7] is Angiotensin-converting enzyme 2 (Homo sapiens, UniProt Q9BYF1). The assay can be described thus: Binding affinity to ACE2 (unknown origin) by MST analysis.
Chain of Angiotensin-converting enzyme 2 (Q9BYF1 whole entry): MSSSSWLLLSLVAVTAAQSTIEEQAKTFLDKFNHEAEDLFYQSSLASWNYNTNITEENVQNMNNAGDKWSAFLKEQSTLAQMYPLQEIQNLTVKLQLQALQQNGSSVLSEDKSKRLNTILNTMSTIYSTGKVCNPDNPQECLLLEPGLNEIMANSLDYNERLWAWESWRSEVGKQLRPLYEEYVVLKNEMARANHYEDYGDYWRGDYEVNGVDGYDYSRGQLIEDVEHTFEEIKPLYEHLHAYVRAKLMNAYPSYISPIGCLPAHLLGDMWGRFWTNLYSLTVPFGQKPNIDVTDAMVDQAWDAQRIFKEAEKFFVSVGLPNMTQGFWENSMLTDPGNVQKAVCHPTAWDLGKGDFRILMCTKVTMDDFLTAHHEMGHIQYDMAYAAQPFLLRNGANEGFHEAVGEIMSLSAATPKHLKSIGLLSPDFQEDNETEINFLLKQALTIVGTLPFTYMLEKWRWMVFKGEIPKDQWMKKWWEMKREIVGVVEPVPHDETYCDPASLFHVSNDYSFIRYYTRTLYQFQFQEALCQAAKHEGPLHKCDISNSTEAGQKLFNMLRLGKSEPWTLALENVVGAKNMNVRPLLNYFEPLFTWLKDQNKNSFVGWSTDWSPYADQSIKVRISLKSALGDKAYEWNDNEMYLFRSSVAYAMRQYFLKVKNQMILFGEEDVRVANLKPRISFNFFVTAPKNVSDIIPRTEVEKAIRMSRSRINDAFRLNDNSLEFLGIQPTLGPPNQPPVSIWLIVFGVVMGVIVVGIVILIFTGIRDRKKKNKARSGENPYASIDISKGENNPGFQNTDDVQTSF

Chain of Neuropilin-1 (O14786 whole entry): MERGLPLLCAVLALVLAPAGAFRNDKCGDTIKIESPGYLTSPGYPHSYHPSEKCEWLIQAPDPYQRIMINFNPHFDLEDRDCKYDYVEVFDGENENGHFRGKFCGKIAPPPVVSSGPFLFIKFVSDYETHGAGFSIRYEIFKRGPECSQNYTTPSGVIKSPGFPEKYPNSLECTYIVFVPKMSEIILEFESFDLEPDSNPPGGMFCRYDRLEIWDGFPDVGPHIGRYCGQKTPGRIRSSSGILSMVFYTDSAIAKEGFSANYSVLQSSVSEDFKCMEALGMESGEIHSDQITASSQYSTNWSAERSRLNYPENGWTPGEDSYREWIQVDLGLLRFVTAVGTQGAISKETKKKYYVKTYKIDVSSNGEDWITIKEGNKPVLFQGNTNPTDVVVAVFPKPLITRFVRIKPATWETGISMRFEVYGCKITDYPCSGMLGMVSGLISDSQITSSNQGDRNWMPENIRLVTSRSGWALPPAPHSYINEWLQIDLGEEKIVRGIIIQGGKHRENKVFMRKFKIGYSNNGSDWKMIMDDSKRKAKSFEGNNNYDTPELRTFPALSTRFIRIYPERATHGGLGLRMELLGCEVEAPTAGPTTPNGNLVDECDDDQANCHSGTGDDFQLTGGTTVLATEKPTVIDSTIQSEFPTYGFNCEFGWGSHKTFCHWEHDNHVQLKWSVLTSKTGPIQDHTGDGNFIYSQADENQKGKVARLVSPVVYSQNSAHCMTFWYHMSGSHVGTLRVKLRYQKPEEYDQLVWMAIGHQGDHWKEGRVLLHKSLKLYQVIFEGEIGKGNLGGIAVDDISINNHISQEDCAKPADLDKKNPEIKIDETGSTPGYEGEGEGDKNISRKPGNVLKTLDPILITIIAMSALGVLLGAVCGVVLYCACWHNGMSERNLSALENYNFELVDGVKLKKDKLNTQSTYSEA

For orientation: pKd means −log10 of the Kd, conventionally taken in molar units. Read a high pKd as a low Kd. For the molecule `CC(C)C[C@@H]1NC(=O)[C@H](C)NC(=O)[C@H](CCCNC(=N)N)NC(=O)[C@@H](NC(=O)[C@@H]2CCCN2C(=O)[C@H](CO)NC(=O)[C@H](Cc2ccc(O)cc2)NC(=O)[C@H](CC(=O)O)NC(=O)CN)CSSC[C@@H](C(=O)N2CCC[C@H]2C(=O)N[C@@H](CO)C(=O)NCC(=O)N[C@@H](CC(=O)O)C(=O)N2CCC[C@H]2C(=O)N[C@@H](CCC(=O)O)C(=O)NCC(=O)NCC(=O)NCC(=O)N[C@@H](CCCNC(=N)N)C(=O)NCC(=O)N[C@@H](CCCNC(=N)N)C(=O)N[C@@H](CCCNC(=N)N)C(=O)N2CCC[C@H]2C(=O)N2CCC[C@H]2C(=O)N[C@@H](CCCNC(=N)N)C(=O)O)NC(=O)[C@H](CCCNC(=N)N)NC(=O)[C@H](Cc2c[nH]c3ccccc23)NC(=O)[C@H](Cc2c[nH]c3ccccc23)NC(=O)[C@@H]2CCCN2C(=O)[C@H](CO)NC(=O)[C@H](Cc2cnc[nH]2)NC(=O)[C@H](CCCNC(=N)N)NC1=O` (H-GDYSPCRALRHSPWWRCPSGDPEGGGRGRRPPR-OH; disulfide 6-17), the pKd on Neuropilin-1 is 7.12. In the assay on SARS-CoV-2 [1], the result was Active.
The molecule `CC[C@H](C)[C@@H]1NC(=O)[C@@H]2CCCN2C(=O)[C@H](CO)NC(=O)[C@@H](NC(=O)[C@@H](NC(=O)[C@H](Cc2ccc(O)cc2)NC(=O)[C@H](CCCNC(=N)N)NC(=O)[C@H](CC(=O)O)NC(=O)CN)[C@@H](C)O)CSSC[C@@H](C(=O)N[C@@H](CC(=O)O)C(=O)N[C@@H](CC(C)C)C(=O)NCC(=O)N[C@@H](CC(=O)O)C(=O)N2CCC[C@H]2C(=O)N[C@@H](CCC(=O)O)C(=O)NCC(=O)NCC(=O)NCC(=O)N[C@@H](CCCCN)C(=O)N[C@@H](C)C(=O)N2CCC[C@H]2C(=O)N[C@@H](CCCNC(=N)N)C(=O)N[C@@H](CCCNC(=N)N)C(=O)N[C@@H](C)C(=O)N[C@@H](CCCNC(=N)N)C(=O)O)NC(=O)[C@H](CCCNC(=N)N)NC(=O)[C@H](Cc2c[nH]c3ccccc23)NC(=O)[C@H](Cc2c[nH]c3ccccc23)NC(=O)[C@@H]2CCCN2C(=O)[C@H](Cc2ccccc2)NC(=O)[C@H](CCSC)NC(=O)[C@H](CCCNC(=N)N)NC1=O` (H-GDRYTCSPIRMFPWWRCDLGDPEGGGKAPRRAR-OH; disulfide 6-17) had a pKd at Neuropilin-1 of 7.65. Besides, in the assay with SARS-CoV-2 [1], the outcome was Active.
In general, pEC50 refers to the negative decadic logarithm of the EC50, by convention in mol/L. Read a low pEC50 as a large EC50. Take `CC(C)C[C@@H]1NC(=O)[C@@H]2CCCN2C(=O)[C@H](CO)NC(=O)[C@@H](NC(=O)[C@H](Cc2cnc[nH]2)NC(=O)[C@H](CO)NC(=O)[C@H](Cc2ccccc2)NC(=O)[C@H](CC(=O)O)NC(=O)CN)CSSC[C@@H](C(=O)N[C@H](C(=O)N[C@@H](Cc2ccc(O)cc2)C(=O)N2CCC[C@H]2C(=O)N[C@@H](CC(=O)O)C(=O)N2CCC[C@H]2C(=O)N[C@@H](CCC(=O)O)C(=O)NCC(=O)NCC(=O)NCC(=O)N[C@@H](CCCCN)C(=O)N2CCC[C@H]2C(=O)N[C@@H](C)C(=O)N[C@@H](CCCNC(=N)N)C(=O)N2CCC[C@H]2C(=O)N[C@@H](C)C(=O)N[C@@H](CCCNC(=N)N)C(=O)O)[C@@H](C)O)NC(=O)[C@H](CCCCN)NC(=O)[C@H](Cc2ccccc2)NC(=O)[C@H](Cc2c[nH]c3ccccc23)NC(=O)[C@@H]2CCCN2C(=O)[C@H](Cc2ccccc2)NC(=O)[C@H](Cc2ccc(O)cc2)NC(=O)[C@H](CCCNC(=N)N)NC1=O` (H-GDFSHCSPLRYFPWFKCTYPDPEGGGKPARPAR-OH; disulfide 6-17): on Neuropilin-1, the pKd is 7.87. Besides, in the assay with SARS-CoV-2 [1], the result was Active. In addition, in the assay on SARS-CoV-2 [2], the inhibition at 1.6 µM was 70%. The pEC50 is 6.35 in the assay with SARS-CoV-2 [3], 5.56 with SARS-CoV-2 [4], 5.66 in the assay on SARS-CoV-2 [5] and 5.92 with SARS-CoV-2 [6].
`CSCC[C@@H](NC(=O)CNC(=O)CNC(=O)[C@@H](Cc1ccc(O)cc1)NC(=O)[C@@H](Cc1c[nH]c2ccccc12)NC(=O)CNC(=O)[C@@H](Cc1ccc(O)cc1)NC(=O)[C@@H](Cc1ccccc1)NC(=O)[C@@H](Cc1ccccc1)NC(=O)Cc1ccc2ccccc2c1)C(=O)N[C@H](CCC(=O)O)C(=O)N[C@H](CCCCN)C(=O)N[C@H](CC(C)C)C(=O)N[C@H](CC(C)C)C(=O)N[C@H](CCCNC(=N)N)C(=O)NCC(=O)NCC(=O)N[C@H](CCCNC(=N)N)C(=O)NCC(=O)N[C@H](CCC(=O)O)C(=O)N[C@H](CCCNC(=N)N)C(=O)N1CCC[C@@H]1C(=O)N1CCC[C@@H]1C(=O)N[C@H](CCCNC(=N)N)C(=O)O`: in assay [7], the Kd entry is on record as “Not Active”. On Neuropilin-1, this molecule gave a pKd of 6.98.
On to `CC[C@H](C)[C@H](NC(=O)[C@H](Cc1ccccc1)NC(=O)[C@H](CCCCN)NC(=O)[C@H](CC(=O)O)NC(=O)CN)C(=O)N[C@H]1CSSC[C@@H](C(=O)N[C@@H](CC(N)=O)C(=O)N[C@@H](Cc2c[nH]c3ccccc23)C(=O)N[C@@H](Cc2ccc(O)cc2)C(=O)N[C@@H](CC(=O)O)C(=O)N2CCC[C@H]2C(=O)N[C@@H](CCC(=O)O)C(=O)NCC(=O)NCC(=O)NCC(=O)N[C@@H](CCCCN)C(=O)NCC(=O)N[C@@H](CC(N)=O)C(=O)N[C@@H](CCCNC(=N)N)C(=O)N2CCC[C@H]2C(=O)N2CCC[C@H]2C(=O)N[C@@H](CCCNC(=N)N)C(=O)O)NC(=O)[C@H](Cc2ccccc2)NC(=O)[C@H](CCCCN)NC(=O)[C@H](Cc2c[nH]c3ccccc23)NC(=O)[C@@H]2CCCN2C(=O)[C@H](CCCCN)NC(=O)[C@H](CC(=O)O)NC(=O)[C@H](CCCNC(=N)N)NC(=O)[C@H]([C@@H](C)CC)NC(=O)[C@@H]2CCCN2C(=O)[C@H](CC(C)C)NC1=O` (H-GDKFICLPIRDKPWKFCNWYDPEGGGKGNRPPR-OH; disulfide 6-17), for which the pKd at Neuropilin-1 is 7.01. Also, the result with SARS-CoV-2 [1] was Active.
`CC(C)C[C@H](NC(=O)[C@H](CC(=O)O)NC(=O)CN)C(=O)N[C@@H](Cc1cnc[nH]1)C(=O)N[C@@H](C)C(=O)N[C@H]1CSSC[C@@H](C(=O)N[C@H](C(=O)N[C@@H](CC(C)C)C(=O)NCC(=O)N[C@@H](CC(=O)O)C(=O)N2CCC[C@H]2C(=O)N[C@@H](CCC(=O)O)C(=O)NCC(=O)NCC(=O)NCC(=O)N[C@@H](CCCNC(=N)N)C(=O)N[C@@H](CO)C(=O)N2CCC[C@H]2C(=O)N[C@@H](CCCNC(=N)N)C(=O)N[C@@H](CCCNC(=N)N)C(=O)N[C@@H](C)C(=O)N[C@@H](CCCNC(=N)N)C(=O)O)[C@@H](C)O)NC(=O)[C@H](C)NC(=O)[C@H](Cc2c[nH]c3ccccc23)NC(=O)[C@H](Cc2c[nH]c3ccccc23)NC(=O)[C@@H]2CCCN2C(=O)[C@H](CC(=O)O)NC(=O)CNC(=O)[C@H](CCCNC(=N)N)NC(=O)[C@H](C(C)C)NC(=O)[C@@H]2CCCN2C(=O)[C@H](CCCNC(=N)N)NC1=O` (H-GDLHACRPVRGDPWWACTLGDPEGGGRSPRRAR-OH; disulfide 6-17): the pKd at Neuropilin-1 is 7.75. Also, the outcome with SARS-CoV-2 [1] was Active.
